According to patent publication US20230192617A1, “AZABICYCLIC(THIO)AMIDES AS FUNGICIDAL COMPOUNDS” (Bayer CropScience Aktiengesellschaft, priority 2020, published 2023):

System: Colletotrichum lindemuthianum
Experiment: B-8. Colletotrichum lindemuthianum in vitro cell test
Assay type: cell-based
Details: 144 h, 20 ppm of active ingredient, 6 days incubation, liquid culture, absorbance, read-out: efficacy (inhibition of fungal growth)
Experimental: B-8. Colletotrichum lindemuthianum In Vitro Cell Test [table] Fungicides were solubilized in DMSO and the solution used to prepare the required range of concentrations. The final concentration of DMSO used in the assay was ≤1%. A spore suspension of C. lindemuthianum was prepared and diluted to the desired spore density. Fungicides were evaluated for their ability to inhibit spores germination and mycelium growth in liquid culture assay. The compounds were added in the desired concentration to the culture medium with spores. After 6 days incubation, fungi-toxicity of compounds was determined by spectrometric measurement of mycelium growth. Inhibition of fungal growth was determined by comparing the absorbance values in wells containing the fungicides with the absorbance in control wells without fungicides.

| SMILES | inhibition at 20 ppm |
| --- | --- |
| O=C(NCC(F)(F)c1ccc(Cl)cn1)c1c(Oc2cccc(C(F)(F)F)c2)cnc2ccccc12 [I-038] | 70 to 79% |
| N#Cc1cccc(Oc2nnc3ccccc3c2C(=O)NCC(F)(F)c2ccc(Cl)cn2)c1 [I-248] | 70 to 79% |

System: not listed separately
Experiment: Measurement of Log P values by HPLC on reversed phase columns (EEC directive 79/831 Annex V.A8)
Assay type: physicochemical
Details: method [a]: LC-UV, acidic range, 0.1% formic acid in water and acetonitrile as eluent
Experimental: A-1.1. Measurement of Log P Values
Measurement of Log P values as provided herein was performed according to EEC directive 79/831 Annex V.A8 by HPLC (High Performance Liquid Chromatography) on reversed phase columns with the following methods:
^[a] Log P value is determined by measurement of LC-UV, in an acidic range, with 0.1% formic acid in water and acetonitrile as eluent (linear gradient from 10% acetonitrile to 95% acetonitrile).
^[b] Log P value is determined by measurement of LC-UV, in a neutral range, with 0.001 molar ammonium acetate solution in water and acetonitrile as eluent (linear gradient from 10% acetonitrile to 95% acetonitrile).
^[c] Log P value is determined by measurement of LC-UV, in an acidic range, with 0.1% phosphoric acid and acetonitrile as eluent (linear gradient from 10% acetonitrile to 95% acetonitrile).
If more than one Log P value is available within the same method, all the values are given and separated by “+”. […]

| SMILES | chromatographic logP |
| --- | --- |
| O=C(O)c1c(Oc2cccc(C(F)(F)F)c2)nnc2ccccc12 [1-01] | 2.27 |
| COC(=O)c1c(Oc2cccc(C(F)(F)F)c2)nnc2ccccc12 [1-02] | 3.62 |
| O=C(O)c1c(Oc2cccc(Cl)c2)nnc2ccccc12 [1-03] | 2.07 |
| Cc1cccc(Oc2nnc3ccccc3c2C(=O)O)c1 [1-04] | 1.92 |
| O=C(O)c1c(Oc2cccc(C(F)(F)F)c2)cnc2ccccc12 [1-07, 3-(3-(trifluoromethyl)phenoxy)quinoline-4-carboxylic acid] | 2.57 |
| COC(=O)c1c(Oc2cccc(C(F)F)c2)nnc2ccccc12 [1-09] | 3.06 |
| O=C(O)c1c(Oc2cccc(C(F)F)c2)nnc2ccccc12 [1-11] | 1.87 |
| COC(=O)c1c(Oc2cccc(C(F)(F)F)c2)cnc2ccccc12 [1-13, methyl 3-(3-(trifluoromethyl)phenoxy)quinoline-4-carboxylate] | 3.8 |
| CC(C)OC(=O)c1c(Oc2cccc(Cl)c2)nnc2ccccc12 [1-14] | 4.19 |
| O=C(O)c1c(Oc2cccc(C(F)(F)F)c2)cnc2ccoc12 [1-15, 6-[3-(trifluoromethyl)phenoxy]furo[3,2-b]pyridine-7-carboxylic acid] | 2.08 |
| O=C(O)c1c(Oc2cccc(C3CC3)c2F)nnc2ccccc12 [1-18, 3-(3-cyclopropyl-2-fluoro-phenoxy)cinnoline-4-carboxylic acid] | 2.23 |
| CCOC(=O)c1c(Oc2cccc(Br)c2F)nnc2c1CCCC2 [1-21] | 3.85 |
| CCOC(=O)c1c(Oc2cccc(C(F)(F)F)c2)nnc2c1CCCC2 [1-22] | 3.9 |
| CCOC(=O)c1c(Oc2cccc(C(F)F)c2)nnc2c1CCCC2 [1-23] | 3.37 |
| CCOC(=O)c1c(Oc2cccc(Cl)c2F)nnc2c1CCCC2 [1-26, ethyl 3-(3-chloro-2-fluoro-phenoxy)-5,6,7,8-tetrahydrocinnoline-4-carboxylate] | 3.76 |
| O=C(O)c1c(Oc2cccc(Br)c2F)nnc2c1CCCC2 [1-27] | 1.55 |
| O=C(O)c1c(Oc2cccc(Cl)c2F)nnc2c1CCCC2 [1-29, 3-(3-chloro-2-fluoro-phenoxy)-5,6,7,8-tetrahydrocinnoline-4-carboxylic acid] | 1.46 |
| O=C(O)c1c(Oc2cccc(C(F)(F)F)c2)nnc2c1CCCC2 [1-31] | 1.6 |
| O=C(O)c1c(Oc2cccc(C(F)F)c2)nnc2c1CCCC2 [1-32] | 1.18 |
| O=C(O)c1c(Oc2cccc(Br)c2F)cnc2ccccc12 [1-39] | 2.59 |
| O=C(O)c1c(Oc2cccc(C(F)F)c2)cnc2ccccc12 [1-41] | 2.1 |
| C#Cc1cccc(Oc2cnc3ccccc3c2C(=O)O)c1 [1-49] | 2.2 |
| C=Cc1cccc(Oc2cnc3ccccc3c2C(=O)O)c1 [1-50] | 2.41 |
| O=C(O)c1c(Oc2cccc(C3CC3)c2F)cnc2ccccc12 [1-51] | 2.71 |

Same assay, conditions: method [b]: LC-UV, neutral range, 0.001 molar ammonium acetate solution in water and acetonitrile as eluent

| SMILES | chromatographic logP |
| --- | --- |
| CCOC(=O)c1c(Oc2cccc(C(F)F)c2)nnc2c1CCCC2 [1-23] | 3.19 |
| CCOC(=O)c1c(Oc2cccc(Cl)c2F)nnc2c1CCCC2 [1-26, ethyl 3-(3-chloro-2-fluoro-phenoxy)-5,6,7,8-tetrahydrocinnoline-4-carboxylate] | 3.56 |
| O=C(O)c1c(Oc2cccc(Br)c2F)nnc2c1CCCC2 [1-27] | 0.45 |
| O=C(O)c1c(Oc2cccc(Cl)c2F)nnc2c1CCCC2 [1-29, 3-(3-chloro-2-fluoro-phenoxy)-5,6,7,8-tetrahydrocinnoline-4-carboxylic acid] | 0.42 |
| O=C(O)c1c(Oc2cccc(C(F)(F)F)c2)nnc2c1CCCC2 [1-31] | 0.55 |

Same assay, conditions: reversed phase HPLC column, method [a]: LC-UV, acidic range, 0.1% formic acid in water and acetonitrile as eluent

| chromatographic logP | SMILES |
| --- | --- |
| 3.92 | C[C@H](NC(=O)c1c(Oc2ccc(Cl)cc2)nnc2ccccc12)c1cccc(C(F)(F)F)c1 (racemic) [I-204] |
| 2.04 | O=C(O)c1c(Oc2cccc(C(F)(F)F)c2)nnc2cnccc12 [1-05] |
| 1.83 | O=C(O)c1c(Oc2cncc(C(F)(F)F)c2)nnc2ccccc12 [1-06] |
| 2.64 | COC(=O)c1c(Oc2cccc(C#N)c2)nnc2ccccc12 [1-08] |
| 1.56 | N#Cc1cccc(Oc2nnc3ccccc3c2C(=O)O)c1 [1-10] |
| 2.74 | Cc1ccc2c(C(=O)O)c(Oc3cccc(C(F)(F)F)c3)nnc2c1 [1-12, 7-methyl-3-(3-(trifluoromethyl)phenoxy)cinnoline-4-carboxylic acid] |
| 2.12 | O=C(O)c1c(Oc2ccc(Cl)cc2)nnc2ccccc12 [1-16] |
| 1.31 | O=C(O)c1c(Oc2cccc(C(F)(F)F)c2)nnc2c1OCCO2 [1-17, 3-[3-(trifluoromethyl)phenoxy]-6,7-dihydro-[1,4]dioxino[2,3-c]pyridazine-4-carboxylic acid] |
| 1.82 | CC1(C)COc2c(nnc(Oc3cccc(C(F)(F)F)c3)c2C(=O)O)O1 [1-19] |
| 2.02 | CC1(C)COc2nnc(Oc3cccc(C(F)(F)F)c3)c(C(=O)O)c2OC1 [1-20] |
| 3.72 | CCOC(=O)c1c(Oc2cccc(Cl)c2)nnc2c1CCCC2 [1-24] |
| 3.79 | CCOC(=O)c1c(Oc2cccc(C3CC3)c2F)nnc2c1CCCC2 [1-25] |
| 1.28 | O=C(O)c1c(Oc2cccc(Cl)c2)nnc2c1CCCC2 [1-28] |
| 1.72 | O=C(O)c1c(Oc2cccc(C3CC3)c2F)nnc2c1CCCC2 [1-30] |
| 1.38 | O=C(O)c1c(Oc2cccc(C(F)(F)F)c2)nnc2c1COCC2 [1-33] |
| 3.21 | O=C(O)c1c(Oc2cccc(C(F)(F)F)c2)nnc2cc(C3CC3)ccc12 [1-34] |
| 2.43 | O=C(O)c1c(Oc2cccc(Br)c2F)nnc2ccccc12 [1-35] |
| 2.36 | O=C(O)c1c(Oc2cccc(C3CC3)c2)nnc2ccccc12 [1-36] |
| 4.02 | CCOC(=O)c1c(Oc2cccc(Br)c2F)nnc2ccccc12 [1-37] |
| 2.62 | O=C(O)c1c(Oc2cccc(C(F)(F)F)c2)nnc2cc(F)ccc12 [1-38] |
| 3.37 | CCOC(=O)c1c(Oc2cccc(Cl)c2F)nnc2c1CCC2 [1-40] |
| 3.95 | CCOC(=O)c1c(Oc2cccc(C(F)(F)F)c2)nnc2ccccc12 [1-42] |

| chromatographic logP | SMILES |
| --- | --- |
| 2.18 | Cc1cccc(Oc2cnc3ccccc3c2C(=O)O)c1 [1-43] |
| 4.4 | CCOC(=O)c1c(Oc2cccc(C(F)(F)F)c2)nnc2c1CCC2(C)C [1-44] |
| 2.59 | O=C(O)c1c(Oc2cccc(C3CC3)c2)cnc2ccccc12 [1-45] |
| 2.49 | CC1(C)CCc2c1nnc(Oc1cccc(C(F)(F)F)c1)c2C(=O)O [1-46] |
| 2.48 | O=C(O)c1c(Oc2cccc(Br)c2)cnc2ccccc12 [1-47] |
| 2.2 | O=C(O)c1c(Oc2cccc(Br)c2)nnc2ccccc12 [1-48] |
| 4.38 | CCOC(=O)c1c(Oc2cccc(C(F)(F)F)c2)nnc2cc(C)ccc12 [1-52] |
| 4.81 | CCOC(=O)c1c(Oc2cccc(C(F)(F)F)c2)nnc2cc(C3CC3)ccc12 [1-53] |
| 3.51 | CCOC(=O)c1c(Oc2cccc(C(F)(F)F)c2)nnc2cnccc12 [1-54] |
| 3.34 | COC(=O)c1c(Oc2cccc(C(F)(F)F)c2)nnc2ccsc12 [1-55] |
| 1.53 | O=C(O)c1c(Oc2cccc(Cl)c2F)nnc2c1CCC2 [1-56] |
| 2.39 | O=C(O)c1c(Oc2cccc(C(F)(F)F)c2)nnc2ccsc12 [1-57] |
| 4.16 | CCOC(=O)c1c(Oc2cccc(C(F)(F)F)c2)nnc2cc(F)ccc12 [1-58] |
| 2.56 | Cc1ccc(C(F)(F)CNC(=O)c2c(Br)cnc3nccnc23)c(C)c1 [3-01] |
| 3.23 | Cc1ccc(C(F)(F)CNC(=O)c2c(Cl)nnc3ccccc23)c(C)c1 [3-02] |
| 3.74 | O=C(NCC(F)(F)c1ccc(Cl)cn1)c1c(Oc2cccc(C(F)(F)F)c2)cnc2ccccc12 [I-038] |
| 5.03 | CON(CCc1ccc(Cl)cc1Cl)C(=O)c1c(Oc2cccc(C(F)(F)F)c2)nnc2ccccc12 [I-190] |
| 4.23 | Cc1ccc(C(F)(F)CNC(=O)c2c(Oc3ccc(Cl)cc3)nnc3ccccc23)c(C)c1 [I-200] |
| 3.92 | O=C(N/C=C/c1ccccc1)c1c(Oc2cccc(C(F)(F)F)c2)cnc2ccccc12 [I-217] |
| 4.24 | CCON(Cc1ccccc1)C(=O)c1c(Oc2cccc(C(F)(F)F)c2)nnc2ccccc12 [I-247] |
| 2.84 | N#Cc1cccc(Oc2nnc3ccccc3c2C(=O)NCC(F)(F)c2ccc(Cl)cn2)c1 [I-248] |

Same assay, conditions: reversed phase HPLC column, method [b]: LC-UV, neutral range, 0.001 molar ammonium acetate solution in water and acetonitrile as eluent

| chromatographic logP | SMILES |
| --- | --- |
| 0.6 | O=C(O)c1c(Oc2cccc(C3CC3)c2F)nnc2c1CCCC2 [1-30] |
| 2.94 | N#Cc1cccc(Oc2nnc3ccccc3c2C(=O)NCC(F)(F)c2ccc(Cl)cn2)c1 [I-248] |
